From ChEMBL document CHEMBL1201862, “PubChem BioAssay data set” (2004)
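Values below derive from 48-hour exposures of cells grown in 96-well plates, with endpoints linearly interpolated between the two concentrations bracketing the appropriate inhibition level. GI50: concentration for 50% inhibition of growth.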 The source made the active and inactive calls. No stated cut-off is given here; in the data, active = GI50 up to about 1.1 µM and inactive = higher.

How the values were obtained:
Test in all cases: NCI tumour cell line growth inhibition, 48 h
U-251 = tested on: U-251
SK-MEL-28 = tested on: SK-MEL-28
TK-10 = tested on: TK-10
HL-60 = tested on: HL-60
A549 = tested on: A549
CAKI-1 = tested on: CAKI-1
NCI-H23 = tested on: NCI-H23
HOP-62 = tested on: HOP-62
HOP-92 = tested on: HOP-92
UACC-257 = tested on: UACC-257
SNB-75 = tested on: SNB-75
786-0 = tested on: 786-0
EKVX = tested on: EKVX
CCRF-CEM = tested on: CCRF-CEM
M19-MEL = tested on: M19-MEL
Malme-3M = tested on: Malme-3M

Measured: GI50

CC1(SCC(N)C(=O)O)CC(=O)NC1=O (centres undefined)
inactive: U-251 > 100 µM | SK-MEL-28 > 100 µM | TK-10 > 100 µM | HL-60 > 100 µM | A549 > 100 µM | CAKI-1 > 100 µM | NCI-H23 > 100 µM | HOP-62 > 100 µM | HOP-92 > 100 µM | UACC-257 > 100 µM | SNB-75 > 100 µM | 786-0 > 100 µM | EKVX > 100 µM | CCRF-CEM > 100 µM | M19-MEL > 100 µM

COC1/C(=C\C(C)=O)c2ccccc2N1C(C)=O (centres undefined)
inactive: U-251 > 100 µM | SK-MEL-28 > 100 µM | HL-60 > 100 µM | A549 > 100 µM | CAKI-1 > 100 µM | NCI-H23 > 100 µM | HOP-62 > 100 µM | HOP-92 > 100 µM | UACC-257 > 100 µM | SNB-75 > 100 µM | 786-0 > 100 µM | EKVX > 100 µM | CCRF-CEM > 100 µM | M19-MEL > 100 µM

COc1ccc2c(C(=O)O)cc3cc(OC)c(OC)cc3c2c1
inactive: U-251 > 100 µM | SK-MEL-28 > 100 µM | TK-10 > 100 µM | HL-60 57.4 µM | A549 > 100 µM | NCI-H23 > 100 µM | HOP-92 > 100 µM | UACC-257 > 100 µM | SNB-75 > 100 µM | 786-0 > 100 µM | EKVX > 100 µM | CCRF-CEM > 100 µM | M19-MEL > 100 µM | Malme-3M > 100 µM

COc1ccc(Br)c(CCCCC(=O)O)c1
inactive: U-251 > 100 µM | SK-MEL-28 > 100 µM | TK-10 > 100 µM | HL-60 > 100 µM | A549 > 100 µM | CAKI-1 > 100 µM | NCI-H23 > 100 µM | HOP-62 > 100 µM | HOP-92 2.89 µM | UACC-257 > 100 µM | SNB-75 > 100 µM | 786-0 > 100 µM | EKVX > 100 µM | CCRF-CEM > 100 µM | M19-MEL > 100 µM

NC1=NC(=O)C(CC(=O)Nc2ccc([N+](=O)[O-])cc2[N+](=O)[O-])S1 (centres undefined)
inactive: U-251 > 100 µM | SK-MEL-28 > 100 µM | TK-10 > 100 µM | HL-60 83.2 µM | A549 > 100 µM | NCI-H23 > 100 µM | HOP-62 > 100 µM | HOP-92 16.7 µM | UACC-257 > 100 µM | SNB-75 92.9 µM | 786-0 > 100 µM | EKVX > 100 µM | CCRF-CEM > 100 µM | M19-MEL > 100 µM | Malme-3M > 100 µM

O=[N+]([O-])c1cc2c(cc1O)[nH]c1cccc([N+](=O)[O-])c12
inactive: SK-MEL-28 > 100 µM | TK-10 > 100 µM | HL-60 > 100 µM | A549 > 100 µM | CAKI-1 > 100 µM | NCI-H23 > 100 µM | HOP-62 > 100 µM | UACC-257 > 100 µM | SNB-75 > 100 µM | 786-0 > 100 µM | CCRF-CEM > 100 µM | M19-MEL > 100 µM | Malme-3M > 100 µM

O=C(CC1(O)C(=O)Nc2ccccc21)c1ccco1 (centres undefined)
inactive: SK-MEL-28 > 100 µM | TK-10 > 100 µM | HL-60 > 100 µM | A549 > 100 µM | CAKI-1 > 100 µM | NCI-H23 > 100 µM | HOP-62 > 100 µM | HOP-92 > 100 µM | UACC-257 > 100 µM | SNB-75 94.8 µM | 786-0 > 100 µM | EKVX > 100 µM | M19-MEL > 100 µM | Malme-3M > 100 µM

S=c1sc2c(n1-c1ccccc1)N=CNC2S (centres undefined)
inactive: U-251 36.1 µM | SK-MEL-28 > 100 µM | TK-10 > 100 µM | HL-60 71.6 µM | A549 65.9 µM | CAKI-1 > 100 µM | NCI-H23 63 µM | HOP-62 41.3 µM | HOP-92 25.9 µM | UACC-257 48.8 µM | SNB-75 56.6 µM | 786-0 > 100 µM | EKVX 64.1 µM | CCRF-CEM 46.2 µM | M19-MEL 96.4 µM | Malme-3M 44.8 µM

Nc1nc(SCc2ccccc2Cl)c2ncn(C3OC(CO)C(O)C3O)c2n1 (centres undefined)
inactive: U-251 > 100 µM | SK-MEL-28 69.2 µM | TK-10 > 100 µM | HL-60 50.5 µM | A549 96.6 µM | CAKI-1 > 100 µM | NCI-H23 > 100 µM | HOP-62 > 100 µM | HOP-92 98.2 µM | SNB-75 23.3 µM | 786-0 > 100 µM | CCRF-CEM > 100 µM | M19-MEL > 100 µM | Malme-3M > 100 µM

N#Cc1c(NN)nc(NN)c(C#N)c1-c1ccccc1
inactive: SK-MEL-28 > 100 µM | TK-10 > 100 µM | HL-60 > 100 µM | A549 > 100 µM | CAKI-1 > 100 µM | NCI-H23 > 100 µM | HOP-62 > 100 µM | HOP-92 > 100 µM | UACC-257 > 100 µM | SNB-75 > 100 µM | 786-0 > 100 µM | EKVX > 100 µM | CCRF-CEM > 100 µM | M19-MEL > 100 µM | Malme-3M > 100 µM

CCn1c(O)c(C(=O)Nc2cccs2)c(=O)n(CC)c1=S
inactive: U-251 11.4 µM | SK-MEL-28 17.3 µM | TK-10 29 µM | HL-60 19.8 µM | A549 18.5 µM | CAKI-1 22.6 µM | NCI-H23 15.8 µM | HOP-62 21.6 µM | HOP-92 21 µM | UACC-257 22.7 µM | SNB-75 17.5 µM | 786-0 19.6 µM | CCRF-CEM 26.7 µM | M19-MEL 19.1 µM | Malme-3M 19.9 µM

O=S(=O)(O)CS(=O)(=O)OCCCl
inactive: U-251 > 100 µM | SK-MEL-28 > 100 µM | TK-10 > 100 µM | HL-60 > 100 µM | A549 > 100 µM | CAKI-1 > 100 µM | NCI-H23 > 100 µM | HOP-62 > 100 µM | HOP-92 > 100 µM | UACC-257 > 100 µM | SNB-75 > 100 µM | 786-0 > 100 µM | EKVX > 100 µM | M19-MEL > 100 µM | Malme-3M > 100 µM

COc1ccc2c(c1)[n+]([O-])c(C(N)=O)c(N)[n+]2[O-]
inactive: U-251 86.7 µM | SK-MEL-28 > 100 µM | HL-60 40.8 µM | A549 > 100 µM | CAKI-1 > 100 µM | NCI-H23 28.8 µM | HOP-62 > 100 µM | HOP-92 > 100 µM | UACC-257 28.6 µM | SNB-75 65.6 µM | 786-0 93.1 µM | EKVX > 100 µM | M19-MEL 73.3 µM | Malme-3M > 100 µM

CSc1cnc2ccccc2c1Sc1c[nH]c2ccccc2c1=O
inactive: U-251 6.49 µM | SK-MEL-28 11.1 µM | TK-10 36 µM | HL-60 3.3 µM | A549 5.51 µM | NCI-H23 11.3 µM | HOP-62 12.2 µM | HOP-92 8.39 µM | UACC-257 11.3 µM | SNB-75 2.79 µM | 786-0 15.3 µM | EKVX 7.87 µM | CCRF-CEM 4.52 µM | M19-MEL 5.22 µM | Malme-3M 6.55 µM
